Target: T1, human FXR (Homo sapiens, UniProt Q96RI1)
T1 construct: expressed in transfected cells; host or cells: HEK293 cells stably carrying a 5xGal4-response-element firefly luciferase reporter, transiently transfected with pcDNA3.1-Gal4-FXR
T1 sequence (Q96RI1 262-486 limits assumed): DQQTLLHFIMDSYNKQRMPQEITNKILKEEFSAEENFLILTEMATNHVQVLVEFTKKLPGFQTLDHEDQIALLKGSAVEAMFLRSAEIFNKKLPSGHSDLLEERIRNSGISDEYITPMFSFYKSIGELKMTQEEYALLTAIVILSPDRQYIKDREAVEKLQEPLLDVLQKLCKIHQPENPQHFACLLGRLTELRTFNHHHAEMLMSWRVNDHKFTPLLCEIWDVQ
Test: transient human FXR/Gal4-luciferase reporter assay
Format: cell-based
Conditions: Gal4-hFXR transfected HEK293 reporter cells; relative to 8 μM GW-4064
Method in brief: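 HEK293 cells stably carrying a 5×Gal4-response-element firefly luciferase reporter, transiently transfected overnight with a CMV-driven Gal4 DNA-binding domain/human FXR ligand-binding domain fusion.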

Row | SMILES | EC50 [µM]
1 | O=C(O)c1nc(C(F)(F)F)n2cc(N3CCC4(C=C(c5c(-c6c(Cl)cccc6Cl)noc5C5CC5)C4)CC3)ccc12 [Example 126, 6-(2-(5-Cyclopropyl-3-(2,6-dichlorophenyl)isoxazol-4-yl)-7-azaspiro[3.5]non-1-en-7-yl)-3-(trifluoromethyl)imidazo[1,5-a]pyridine-1-carboxylic acid] | 0.102
2 | O=C(O)c1cc2ccc(N3CCC4(C=C(c5c(-c6c(F)cccc6F)noc5C5CC5)C4)CC3)cc2nn1 [Example 79, 7-(2-(5-Cyclopropyl-3-(2,6-difluorophenyl)isoxazol-4-yl)-7-azaspiro[3.5]non-1-en-7-yl)cinnoline-3-carboxylic acid] | 0.733
3 | O=C(O)c1ccc(N2CCC3(C=C(c4c(-c5ccccc5C(F)(F)F)noc4C4CC4)C3)CC2)nc1 [Example 30, 6-(2-(5-Cyclopropyl-3-(2-(trifluoromethyl)phenyl)isoxazol-4-yl)-7-azaspiro[3.5]non-1-en-7-yl) nicotinic acid] | 0.11
4 | Cc1cccc(Cl)c1-c1noc(C2CC2)c1C1=CC2(CCN(c3ccc4cc(C(=O)O)nnc4c3)CC2)C1 [Example 57, 7-(2-(3-(2-Chloro-6-methylphenyl)-5-cyclopropylisoxazol-4-yl)-7-azaspiro[3.5]non-1-en-7-yl)cinnoline-3-carboxylic acid] | 0.227
5 | O=C(O)c1cnc(N2CCC3(C=C(c4c(-c5ccccc5OC(F)(F)F)noc4C4CC4)C3)CC2)c(F)c1 [Example 27, 6-(2-(5-Cyclopropyl-3-(2-(trifluoromethoxy)phenyl)isoxazol-4-yl)-7-azaspiro[3.5]non-1-en-7-yl)-5-fluoronicotinic acid] | 1.1
6 | O=C(O)c1cnc(N2CCC3(C=C(c4c(-c5ccccc5C(F)(F)F)noc4C4CC4)C3)CC2)cc1C(F)(F)F [Example 163, 6-(2-(5-Cyclopropyl-3-(2-(trifluoromethyl)phenyl)isoxazol-4-yl)-7-azaspiro[3.5]non-1-en-7-yl)-4-(trifluoromethyl)nicotinic acid] | 0.344
7 | CCNC(=O)c1cc(F)c2nc(N3CCC4(C=C(c5c(-c6c(Cl)cncc6Cl)noc5C5CC5)C4)CC3)sc2c1 [Example 200, 2-(2-(5-Cyclopropyl-3-(3,5-dichloropyridin-4-yl)isoxazol-4-yl)-7-azaspiro[3.5]non-1-en-7-yl)-N-ethyl-4-fluorobenzo[d]thiazole-6-carboxamide] | 0.068
8 | O=C(O)c1cc(OC(F)F)c2cc(N3CCC4(C=C(c5c(-c6ncccc6Cl)noc5C5CC5)C4)CC3)ccc2n1 [Example 78, 6-(2-(3-(3-Chloropyridin-2-yl)-5-cyclopropylisoxazol-4-yl)-7-azaspiro[3.5]non-1-en-7-yl)-4-(difluoromethoxy)quinoline-2-carboxylic acid] | 0.121
9 | O=C(O)c1ccc(OC2CCC3(CC2)CC(O)(c2c(-c4c(Cl)cccc4Cl)noc2C2CC2)C3)cc1 (stereo not drawn) [Example 208, 4-((2-(5-Cyclopropyl-3-(2,6-dichlorophenyl)isoxazol-4-yl)-2-hydroxyspiro[3.5]nonan-7-yl)oxy)benzoic acid] | 6.66
